Measurements from article PMC5218480 (PLoS ONE, 2017).

Test system: MV-4-11 cells
Assay: Gene expression microarray analysis (Affymetrix PrimeView) and GSEA
Type: cell-based, human
Set-up: RFU PODN (11730768_x_at) / Fold change /veh PODN (11730768_x_at) / RFU LINC00158 (11744669_a_at) / Fold change /veh LINC00158 (11744669_a_at) / RFU DUSP10 (11751237_a_at) / Fold change /veh DUSP10 (11751237_a_at) / RFU ID3 (11757404_x_at) / Fold change /veh ID3 (11757404_x_at) / RFU PLEKHG5 (11737974_s_at) / Fold change /veh PLEKHG5 (11737974_s_at) / RFU LRRC4B (11730491_at) / Fold change /veh LRRC4B (11730491_at) / RFU GIMAP4 (11747438_a_at) / Fold change /veh GIMAP4 (11747438_a_at) / RFU KRT8 (11758183_x_at) / Fold change /veh KRT8 (11758183_x_at) / RFU CNN1 (11734310_a_at) / Fold change /veh CNN1 (11734310_a_at) / RFU VPS37D (11726825_at) / Fold change /veh VPS37D (11726825_at) / RFU C10orf10 (11716522_x_at) / Fold change /veh C10orf10 (11716522_x_at) / RFU KIR2DL2 /// KIR2DL4 /// KIR2DL5A /// KIR2DL5B /// KIR2DS1 /// KIR2DS2 /// KIR2DS3 /// KIR2DS4 /// KIR3DL3 /// KIR3DL3 /// KIR3DS1 (11738374_at) / Fold change /veh KIR2DL2 /// KIR2DL4 /// KIR2DL5A /// KIR2DL5B /// KIR2DS1 /// KIR2DS2 /// KIR2DS3 /// KIR2DS4 /// KIR3DL3 /// KIR3DL3 /// KIR3DS1 (11738374_at) / RFU C1QL1 (11718748_at) / Fold change /veh C1QL1 (11718748_at) / RFU TMPRSS4 (11747572_a_at) / Fold change /veh TMPRSS4 (11747572_a_at) / RFU HAMP (11756126_x_at) / Fold change /veh HAMP (11756126_x_at) / RFU RNFT2 (11725882_a_at) / Fold change /veh RNFT2 (11725882_a_at) / RFU NR4A2 (11747474_a_at) / Fold change /veh NR4A2 (11747474_a_at) / RFU ABCC12 (11746883_a_at) / Fold change /veh ABCC12 (11746883_a_at) / RFU TMEM136 (11760407_x_at) / Fold change /veh TMEM136 (11760407_x_at) / RFU CLDN22 /// WWC2 (11732394_at) / Fold change /veh CLDN22 /// WWC2 (11732394_at) / RFU HLA-DPB1 (11760878_x_at) / Fold change /veh HLA-DPB1 (11760878_x_at) / RFU SPINT1 (11716480_a_at) / Fold change /veh SPINT1 (11716480_a_at) / RFU GAP43 (11754022_s_at) / Fold change /veh GAP43 (11754022_s_at) / RFU A4GNT (11735810_at) / Fold change /veh A4GNT (11735810_at) / RFU PRB3 (11715151_x_at) / Fold change /veh PRB3 (11715151_x_at) / RFU TUBB4B (11761932_at) / Fold change /veh TUBB4B (11761932_at) / RFU CAPN14 (11732068_a_at) / Fold change /veh CAPN14 (11732068_a_at) / RFU TMCC2 (11721928_a_at) / Fold change /veh TMCC2 (11721928_a_at) / RFU IRGQ (11745062_a_at) / Fold change /veh IRGQ (11745062_a_at) / RFU FAM174B (11720279_a_at) / Fold change /veh FAM174B (11720279_a_at) / RFU TMPRSS4 (11748680_a_at) / Fold change /veh TMPRSS4 (11748680_a_at) / RFU FAM212B (11763350_a_at) / Fold change /veh FAM212B (11763350_a_at) / RFU PLEKHG5 (11743358_a_at) / Fold change /veh PLEKHG5 (11743358_a_at) / RFU ZSCAN30 (11745921_a_at) / Fold change /veh ZSCAN30 (11745921_a_at) / RFU CMKLR1 (11741424_a_at) / Fold change /veh CMKLR1 (11741424_a_at) / RFU LOC101060620 /// MAPK8IP1 (11723275_at) / Fold change /veh LOC101060620 /// MAPK8IP1 (11723275_at) / RFU SPTSSB (11747773_x_at) / Fold change /veh SPTSSB (11747773_x_at) / RFU PRSS12 (11739890_at) / Fold change /veh PRSS12 (11739890_at) / RFU BIN1 (11741810_x_at) / Fold change /veh BIN1 (11741810_x_at) / RFU WNT11 (11732464_a_at) / Fold change /veh WNT11 (11732464_a_at) / RFU C10orf10 (11716521_a_at) / Fold change /veh C10orf10 (11716521_a_at) / RFU C5orf56 (11738089_at) / Fold change /veh C5orf56 (11738089_at) / RFU CYB561 (11721691_x_at) / Fold change /veh CYB561 (11721691_x_at) / RFU ANKRD19P (11752326_a_at) / Fold change /veh ANKRD19P (11752326_a_at) / RFU OR2T12 /// OR2T33 /// OR2T8 (11738714_s_at) / Fold change /veh OR2T12 /// OR2T33 /// OR2T8 (11738714_s_at) / RFU VCAN (11748164_a_at) / Fold change /veh VCAN (11748164_a_at) / RFU JSRP1 (11732532_at) / Fold change /veh JSRP1 (11732532_at) / RFU KRTAP10-11 (11738290_x_at) / Fold change /veh KRTAP10-11 (11738290_x_at) / RFU MYO3A (11730013_a_at) / Fold change /veh MYO3A (11730013_a_at) / RFU EBF3 (11725865_a_at) / Fold change /veh EBF3 (11725865_a_at) / RFU CAMK2N1 (11719241_x_at) / Fold change /veh CAMK2N1 (11719241_x_at) / RFU C5orf56 (11738088_a_at) / Fold change /veh C5orf56 (11738088_a_at) / RFU OLFML3 (11715873_a_at) / Fold change /veh OLFML3 (11715873_a_at) / RFU LOC100653217 /// NTM (11731650_a_at) / Fold change /veh LOC100653217 /// NTM (11731650_a_at) / RFU MAPK11 (11762145_a_at) / Fold change /veh MAPK11 (11762145_a_at) / RFU FIZ1 (11724087_x_at) / Fold change /veh FIZ1 (11724087_x_at) / RFU OASL (11726364_x_at) / Fold change /veh OASL (11726364_x_at) / RFU SOX15 (11748057_x_at) / Fold change /veh SOX15 (11748057_x_at) / RFU CD79A (11719716_a_at) / Fold change /veh CD79A (11719716_a_at) / RFU HIST1H1D (11736915_at) / Fold change /veh HIST1H1D (11736915_at) / RFU CASKIN2 (11723855_a_at) / Fold change /veh CASKIN2 (11723855_a_at) / RFU LOC730098 (11760151_x_at) / Fold change /veh LOC730098 (11760151_x_at) / RFU OR4N2 (11742367_at) / Fold change /veh OR4N2 (11742367_at) / RFU PRRT2 (11749266_a_at) / Fold change /veh PRRT2 (11749266_a_at) / RFU SNX32 (11753110_a_at) / Fold change /veh SNX32 (11753110_a_at) / RFU CDHR5 (11726645_a_at) / Fold change /veh CDHR5 (11726645_a_at) / RFU RCAN1 (11760418_a_at) / Fold change /veh RCAN1 (11760418_a_at) / RFU FAM167A (11723789_a_at) / Fold change /veh FAM167A (11723789_a_at) / RFU FAM26E (11764081_at) / Fold change /veh FAM26E (11764081_at) / RFU ISYNA1 (11749810_s_at) / Fold change /veh ISYNA1 (11749810_s_at) / RFU ACY1 (11761880_at) / Fold change /veh ACY1 (11761880_at) / RFU 11764098_at / Fold change /veh 11764098_at / RFU SAMD14 (11745864_x_at) / Fold change /veh SAMD14 (11745864_x_at) / RFU NPB (11741838_a_at) / Fold change /veh NPB (11741838_a_at) / RFU TMPRSS6 (11731388_a_at) / Fold change /veh TMPRSS6 (11731388_a_at) / RFU KRTAP10-2 (11738614_at) / Fold change /veh KRTAP10-2 (11738614_at) / RFU ARHGAP8 /// PRR5-ARHGAP8 (11727945_x_at) / Fold change /veh ARHGAP8 /// PRR5-ARHGAP8 (11727945_x_at) / RFU KRTAP5-7 /// NADSYN1 (11734609_at) / Fold change /veh KRTAP5-7 /// NADSYN1 (11734609_at) / RFU RASL12 (11751679_a_at) / Fold change /veh RASL12 (11751679_a_at) / RFU CDKN2B (11736163_a_at) / Fold change /veh CDKN2B (11736163_a_at) / RFU PRF1 (11729649_at) / Fold change /veh PRF1 (11729649_at) / RFU, ZNF638 /// ZNF638-IT1 / Fold change vs veh, ZNF638 /// ZNF638-IT1 / RFU, PANK3 / Fold change vs veh, PANK3 / RFU, SH3YL1 / Fold change vs veh, SH3YL1 / RFU, ZEB2 / Fold change vs veh, ZEB2 / RFU, NRIP1 / Fold change vs veh, NRIP1 / RFU, PTTG1IP / Fold change vs veh, PTTG1IP / RFU, CAPN2 / Fold change vs veh, CAPN2 / RFU, MED14 / Fold change vs veh, MED14 / RFU, SNORA58 / Fold change vs veh, SNORA58 / RFU, C1orf63 / Fold change vs veh, C1orf63 / RFU, LRRFIP1 / Fold change vs veh, LRRFIP1 / RFU, NDUFAF7 / Fold change vs veh, NDUFAF7 / RFU, SLC12A2 / Fold change vs veh, SLC12A2 / RFU, IBTK / Fold change vs veh, IBTK / RFU, ESF1 / Fold change vs veh, ESF1 / Fold change vs veh, TMEM50B / RFU, TAOK1 / Fold change vs veh, TAOK1 / RFU, ACBD3 / Fold change vs veh, ACBD3 / RFU, TMA16 / Fold change vs veh, TMA16 / RFU, RWDD3 / Fold change vs veh, RWDD3 / RFU, BCAT1 / Fold change vs veh, BCAT1 / RFU, EDEM3 / Fold change vs veh, EDEM3 / RFU, TMEM33 / Fold change vs veh, TMEM33 / RFU, WDR75 / Fold change vs veh, WDR75 / RFU, AHCTF1 / Fold change vs veh, AHCTF1 / RFU, TFRC / Fold change vs veh, TFRC / RFU, ZDHHC17 / Fold change vs veh, ZDHHC17 / RFU, NOM1 / Fold change vs veh, NOM1 / RFU, ARL8B / Fold change vs veh, ARL8B / RFU, ZBTB11 / Fold change vs veh, ZBTB11 / RFU, TAMM41 / Fold change vs veh, TAMM41 / RFU, KIAA1704 /// LOC100996395 / Fold change vs veh, KIAA1704 /// LOC100996395 / RFU, ING1 / Fold change vs veh, ING1 / RFU, TRMT61B / Fold change vs veh, TRMT61B / RFU, FUBP3 / Fold change vs veh, FUBP3 / RFU, TP53 / Fold change vs veh, TP53 / RFU, TNKS2 / Fold change vs veh, TNKS2 / RFU, ZFP14 / Fold change vs veh, ZFP14 / RFU, ACTR2 / Fold change vs veh, ACTR2 / RFU, PPP3R1 / Fold change vs veh, PPP3R1 / RFU, PIK3R1 / Fold change vs veh, PIK3R1 / RFU, HNRNPA1 / Fold change vs veh, HNRNPA1 / RFU, RNF170 / Fold change vs veh, RNF170 / RFU, ZNF28 / Fold change vs veh, ZNF28 / RFU, RNGTT / Fold change vs veh, RNGTT / RFU, OGT / Fold change vs veh, OGT / RFU, BRD1 / Fold change vs veh, BRD1 / RFU, MARS / Fold change vs veh, MARS / RFU, ZNF655 / Fold change vs veh, ZNF655 / RFU, FAHD1 / Fold change vs veh, FAHD1 / RFU, BDP1 / Fold change vs veh, BDP1 / RFU, LRRCC1 / Fold change vs veh, LRRCC1 / RFU, ARID1A / Fold change vs veh, ARID1A / RFU, ZNF146 / Fold change vs veh, ZNF146 / RFU, ZNF330 / Fold change vs veh, ZNF330 / RFU, GPN3 / Fold change vs veh, GPN3 / RFU, C9orf123 / Fold change vs veh, C9orf123 / RFU, N4BP2L2 / Fold change vs veh, N4BP2L2 / RFU, ARFIP1 / Fold change vs veh, ARFIP1 / RFU, FAM179B / Fold change vs veh, FAM179B / RFU, BCL10 / Fold change vs veh, BCL10 / RFU, UHRF1BP1L / Fold change vs veh, UHRF1BP1L / RFU, BET1 / Fold change vs veh, BET1 / RFU, CNOT2 / Fold change vs veh, CNOT2 / RFU, ZNF268 / Fold change vs veh, ZNF268 / Fold change vs veh, ZNF507 / RFU, DGCR2 / Fold change vs veh, DGCR2 / RFU, WDSUB1 / Fold change vs veh, WDSUB1 / Fold change vs veh, HSP90B1 /// MIR3652 / RFU, ADSS / Fold change vs veh, ADSS / RFU, GK / Fold change vs veh, GK / RFU, ZNF148 / Fold change vs veh, ZNF148 / RFU, TAF9 / Fold change vs veh, TAF9 / RFU, SLC1A5 / Fold change vs veh, SLC1A5 / RFU, SLMO2 / Fold change vs veh, SLMO2 / RFU, ABCC4 / Fold change vs veh, ABCC4 / RFU, LOC101060439 /// RAP1B / Fold change vs veh, LOC101060439 /// RAP1B / RFU, RFX7 / Fold change vs veh, RFX7 / RFU, GTPBP10 / Fold change vs veh, GTPBP10 / RFU, CNEP1R1 / Fold change vs veh, CNEP1R1 / RFU, BIVM-ERCC5 /// ERCC5 / Fold change vs veh, BIVM-ERCC5 /// ERCC5 / RFU, ILF3 / Fold change vs veh, ILF3 / RFU 11762660_at / Fold change /veh 11762660_at / RFU VCAN (11757783_s_at) / Fold change /veh VCAN (11757783_s_at) / RFU DDX43 (11728927_at) / Fold change /veh DDX43 (11728927_at) / RFU KRT8 (11758188_x_at) / Fold change /veh KRT8 (11758188_x_at) / RFU NKD1 (11759106_at) / Fold change /veh NKD1 (11759106_at) / RFU SRD5A1 (11742802_a_at) / Fold change /veh SRD5A1 (11742802_a_at) / RFU TPSAB1 /// TPSB2 (11721975_s_at) / Fold change /veh TPSAB1 /// TPSB2 (11721975_s_at) / RFU GSTM3 (11746129_a_at) / Fold change /veh GSTM3 (11746129_a_at) / RFU IL23R (11737362_x_at) / Fold change /veh IL23R (11737362_x_at) / RFU TMEM51 (11727254_a_at) / Fold change /veh TMEM51 (11727254_a_at) / RFU PIWIL2 (11732686_x_at) / Fold change /veh PIWIL2 (11732686_x_at) / RFU ORM1 (11744905_x_at) / Fold change /veh ORM1 (11744905_x_at) / RFU CCDC152 (11743942_at) / Fold change /veh CCDC152 (11743942_at) / RFU ECM1 (11717891_a_at) / Fold change /veh ECM1 (11717891_a_at) / RFU IL23R (11748794_a_at) / Fold change /veh IL23R (11748794_a_at) / RFU TNFAIP8L3 (11732012_x_at) / Fold change /veh TNFAIP8L3 (11732012_x_at) / RFU MBOAT4 (11741988_at) / Fold change /veh MBOAT4 (11741988_at) / RFU 11764193_at / Fold change /veh 11764193_at / RFU TMEM53 (11763286_at) / Fold change /veh TMEM53 (11763286_at) / RFU MAGEB2 (11727129_at) / Fold change /veh MAGEB2 (11727129_at) / RFU TMEM200A (11744735_a_at) / Fold change /veh TMEM200A (11744735_a_at) / RFU CCDC152 (11751479_a_at) / Fold change /veh CCDC152 (11751479_a_at) / RFU FAM211A (11726209_a_at) / Fold change /veh FAM211A (11726209_a_at) / RFU RGS16 (11746705_a_at) / Fold change /veh RGS16 (11746705_a_at) / RFU VCAN (11755009_s_at) / Fold change /veh VCAN (11755009_s_at) / RFU RHOB (11743442_s_at) / Fold change /veh RHOB (11743442_s_at) / RFU RGS16 (11720943_a_at) / Fold change /veh RGS16 (11720943_a_at) / RFU RGS16 (11720944_at) / Fold change /veh RGS16 (11720944_at) / RFU, VPS4B / Fold change vs veh, VPS4B / RFU, CREB1 / Fold change vs veh, CREB1 / RFU, DNAJC13 / Fold change vs veh, DNAJC13 / RFU, GNAQ / Fold change vs veh, GNAQ / RFU, CDK5R1 / Fold change vs veh, CDK5R1 / RFU, ZRANB3 / Fold change vs veh, ZRANB3 / RFU, CUL4A / Fold change vs veh, CUL4A / RFU, CCNY / Fold change vs veh, CCNY / RFU, UFL1 / Fold change vs veh, UFL1 / RFU, COG3 / Fold change vs veh, COG3 / RFU, DIAPH2 / Fold change vs veh, DIAPH2 / RFU, SKA2 / Fold change vs veh, SKA2 / RFU, AFF3 / Fold change vs veh, AFF3 / RFU, LMF1 / Fold change vs veh, LMF1 / RFU, IPO11 / Fold change vs veh, IPO11 / RFU, DFFB / Fold change vs veh, DFFB / RFU, FOXP1 / Fold change vs veh, FOXP1 / RFU, CARD8 / Fold change vs veh, CARD8 / RFU, STRN3 / Fold change vs veh, STRN3 / RFU, ADK / Fold change vs veh, ADK / RFU, RASSF2 / Fold change vs veh, RASSF2 / RFU, WIPF1 / Fold change vs veh, WIPF1 / RFU, LARP1B / Fold change vs veh, LARP1B / RFU, RASA1 / Fold change vs veh, RASA1 / RFU, RB1 / Fold change vs veh, RB1 / RFU, PPFIA1 / Fold change vs veh, PPFIA1 / RFU, MAT2A / Fold change vs veh, MAT2A / RFU, CCT5 / Fold change vs veh, CCT5 / RFU, WDR92 / Fold change vs veh, WDR92 / RFU, CUX1 / Fold change vs veh, CUX1 / RFU, TTC7A / Fold change vs veh, TTC7A / RFU, TMEM135 / Fold change vs veh, TMEM135 / RFU, DEPTOR / Fold change vs veh, DEPTOR / RFU, CPM / Fold change vs veh, CPM / RFU, DNAJB6 / Fold change vs veh, DNAJB6 / RFU, CACNA2D3 / Fold change vs veh, CACNA2D3 / RFU, DTX4 / Fold change vs veh, DTX4 / RFU, TFCP2 / Fold change vs veh, TFCP2 / RFU, GMCL1 /// GMCL1P1 / Fold change vs veh, GMCL1 /// GMCL1P1 / RFU, AEBP2 / Fold change vs veh, AEBP2 / RFU, SNHG1 /// SNORD22 /// SNORD25 /// SNORD26 /// SNORD27 /// SNORD28 /// SNORD29 /// SNORD31 / Fold change vs veh, SNHG1 /// SNORD22 /// SNORD25 /// SNORD26 /// SNORD27 /// SNORD28 /// SNORD29 /// SNORD31 / Fold change (Aza/veh), C12orf56 (ProbeSet 11735607_a_at) / Fold change (ACY-1035/veh), C12orf56 (ProbeSet 11735607_a_at) / Fold change (Aza/veh), FGFR1OP (ProbeSet 11751329_s_at) / Fold change (ACY-1035/veh), FGFR1OP (ProbeSet 11751329_s_at) / Fold change (Aza/veh), VPS36 (ProbeSet 11739960_a_at) / Fold change (ACY-1035/veh), VPS36 (ProbeSet 11739960_a_at) / RFU SYPL1 (11715823_x_at) / Fold change /veh SYPL1 (11715823_x_at) / RFU IGFBP7 (11715501_s_at) / Fold change /veh IGFBP7 (11715501_s_at) / RFU REEP3 (11722064_at) / Fold change /veh REEP3 (11722064_at) / RFU IGLL1 (11728026_x_at) / Fold change /veh IGLL1 (11728026_x_at): dose or concentration left out as unconfirmed
Conditions: MV-4-11 cells, 48 hours

Which “RFU C10orf10 (11716521_a_at)” value does the source give for `Nc1ncn([C@@H]2O[C@H](CO)[C@@H](O)[C@H]2O)c(=O)n1` [azacitidine] here?
Its value is 42.51 RFU.
